Measured values taken from patent US20040248860A1, “Use of selective progesterone receptor modulators for the treatment of androgen deficiency” (priority 2002, published 2004).

Assays:
[1] = test system: total testosterone levels; assay: Phase II study of J867: total testosterone levels over 12 weeks; format: in vivo, human (female subjects); conditions: for mean testosterone concentration increase over the treatment period: female subjects, 12 week treatment, change from baseline
Description: (§1) The effect of SPRMs on testosterone levels and SHBG levels was studied using various doses of J867 over three months. The study was a phase II, multi-center, randomized, double blind, parallel group study of J867 at doses of 5 mg, 10 mg, and 25 mg once a day (QD)compared to placebo. Approximately 120 female subjects between the ages of 18 and 49 were enrolled in the study and randomly assigned to one of the four dosing groups above. During the 12 week study, testosterone and SHBG were measured at screening visits during weeks 2, 4, 8, and 12 of the study.
FIG. 1 is a graph showing total testosterone levels as a function of time during the study. […] Testosterone concentrations were relatively constant for the group receiving placebo. […] Over the treatment period, the mean testosterone concentrations for the 5 mg QD group increased approximately 7-15 ng/dL; the mean increase for the 10 mg QD group was approximately 15-21 ng/dL; and the mean concentrations observed following treatment with 25 mg QD increased approximately 16-25 ng/dL.

[2] = test system: sex hormone-binding globulin (SHBG); assay: Phase II study of J867: SHBG levels over 12 weeks; format: in vivo, human (female subjects); conditions: 12 week treatment
Description: as §1
SHBG levels were also measured at weeks 2, 4, 8, and 12 of the study.

progesterone receptor = molecular target: T1, progesterone receptor (Oryctolagus cuniculus, UniProt P06186); conditions: rabbit model, scale of 0-4; cited from earlier work
T1 construct: effects of compounds at the progesterone receptor using a rabbit model; from tissue; host or cells: live rabbit (in vivo)
T1 sequence (P06186 1-930): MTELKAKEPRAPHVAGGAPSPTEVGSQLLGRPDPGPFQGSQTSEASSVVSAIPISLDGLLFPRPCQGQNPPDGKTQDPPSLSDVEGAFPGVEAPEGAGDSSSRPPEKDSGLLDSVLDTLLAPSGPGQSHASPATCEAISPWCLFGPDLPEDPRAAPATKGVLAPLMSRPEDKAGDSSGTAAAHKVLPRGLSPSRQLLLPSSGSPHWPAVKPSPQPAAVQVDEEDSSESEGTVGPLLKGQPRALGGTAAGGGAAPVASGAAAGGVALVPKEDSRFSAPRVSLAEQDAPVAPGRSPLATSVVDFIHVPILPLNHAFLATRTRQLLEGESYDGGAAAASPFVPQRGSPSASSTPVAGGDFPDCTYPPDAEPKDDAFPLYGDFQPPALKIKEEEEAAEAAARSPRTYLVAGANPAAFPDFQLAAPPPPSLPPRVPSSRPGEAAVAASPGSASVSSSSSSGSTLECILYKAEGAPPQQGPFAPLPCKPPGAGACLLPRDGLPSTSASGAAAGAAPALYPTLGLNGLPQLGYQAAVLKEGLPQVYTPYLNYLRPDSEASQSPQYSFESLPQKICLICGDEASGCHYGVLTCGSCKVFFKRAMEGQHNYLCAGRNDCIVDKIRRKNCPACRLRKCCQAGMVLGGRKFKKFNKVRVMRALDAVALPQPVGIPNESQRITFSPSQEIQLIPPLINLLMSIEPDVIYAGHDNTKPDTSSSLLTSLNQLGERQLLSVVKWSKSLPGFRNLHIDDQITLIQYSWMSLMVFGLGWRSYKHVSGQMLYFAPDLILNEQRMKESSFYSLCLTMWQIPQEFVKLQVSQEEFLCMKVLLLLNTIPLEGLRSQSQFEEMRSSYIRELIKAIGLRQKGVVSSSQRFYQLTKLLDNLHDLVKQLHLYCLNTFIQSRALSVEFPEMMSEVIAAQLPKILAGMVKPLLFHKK

SMILES | mean testosterone concentration increase over the treatment period ([1]; 5 mg QD) | mean testosterone concentration increase over the treatment period ([1]; 10 mg QD) | mean testosterone concentration increase over the treatment period ([1]; 25 mg QD) | total testosterone levels (FIG. 1) ([1]; all doses (5, 10, 25 mg QD) compared to placebo) | visit with largest mean increase of testosterone from baseline ([1]; all three dose groups (5, 10, 25 mg QD)) | testosterone concentrations at the end of the study ([1]; all three dose groups, week 12) | mean level of SHBG during treatment ([2]; 5 mg QD) | mean level of SHBG during treatment ([2]; 10 mg QD) | mean level of SHBG during treatment ([2]; 25 mg QD) | McPhail score (progesterone receptor)
COC[C@]1(OC)CC[C@H]2[C@@H]3CCC4=CC(=O)CCC4=C3[C@@H](c3ccc(/C=N/O)cc3)C[C@@]21C [J867, [4-[17β-Methoxy-17α-(methoxymethyl)-3-oxoestra-4,9-dien-11β-yl]benzaldehyd-(1E)-oxim]] | 7 to 15 ng/dL | 15 to 21 ng/dL | 16 to 25 ng/dL | testosterone levels increased with all doses | 2 week | still elevated above baseline | remained relatively constant | decreased from baseline | decreased from baseline | –
CC#C[C@]1(O)CC[C@H]2[C@@H]3CCC4=CC(=O)CCC4=C3[C@@H](c3ccc(N(C)C)cc3)C[C@@]21C [RU486, mifepristone] | – | – | – | – | – | – | – | – | – | less than 0.5
CC(=O)[C@H]1CC[C@H]2[C@@H]3CCC4=CC(=O)CC[C@]4(C)[C@H]3CC[C@]12C [progesterone] | – | – | – | – | – | – | – | – | – | 4
